Measurements published in ChEMBL document CHEMBL1201862, “PubChem BioAssay data set” (2004).
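The compound was tested at five concentrations on cells cultured in 96-well plates, with a 48-hour exposure period. At the GI50, growth is halved.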 The source made the active and inactive calls. No stated cut-off is given here; in the data, active = GI50 up to about 1.1 µM and inactive = higher.

How the values were obtained:
Assay in all cases: DTP human tumour cell line panel, 48 h
786-0 = test system: 786-0
A498 = test system: A498
A549 = test system: A549
ACHN = test system: ACHN
CCRF-CEM = test system: CCRF-CEM
IGROV-1 = test system: IGROV-1
K562 = test system: K562
LXFL 529 = test system: LXFL 529
OVCAR-8 = test system: OVCAR-8
SF-539 = test system: SF-539
SNB-75 = test system: SNB-75
SNB-78 = test system: SNB-78
TK-10 = test system: TK-10
UACC-257 = test system: UACC-257
UACC-62 = test system: UACC-62
SR = test system: SR

Structure (SMILES)	GI50 (786-0)	GI50 (A498)	GI50 (A549)	GI50 (ACHN)	GI50 (CCRF-CEM)	GI50 (IGROV-1)	GI50 (K562)	GI50 (LXFL 529)	GI50 (OVCAR-8)	GI50 (SF-539)	GI50 (SNB-75)	GI50 (SNB-78)	GI50 (TK-10)	GI50 (UACC-257)	GI50 (UACC-62)	GI50 (SR)
CC1(C)CC23C(=O)N(c4ccccc4)C(Nc4ccccc4)=NC2=CC(C#N)=C(C#N)C3O1 (configuration not stated)	> 100 µM (inactive)	26.4 µM (inactive)	28.1 µM (inactive)	28.8 µM (inactive)	48.6 µM (inactive)	> 100 µM (inactive)	72.4 µM (inactive)	> 100 µM (inactive)	99.5 µM (inactive)	34.8 µM (inactive)	48.8 µM (inactive)	> 100 µM (inactive)	> 100 µM (inactive)	43.3 µM (inactive)	96.4 µM (inactive)	
O=S(=O)(Sc1ccc(Cl)cc1)c1ccc(Cl)cc1	16 µM (inactive)	15.9 µM (inactive)	12.2 µM (inactive)	16.1 µM (inactive)	4.23 µM (inactive)	16.8 µM (inactive)	19.9 µM (inactive)	16 µM (inactive)	16.1 µM (inactive)	14.6 µM (inactive)	17.7 µM (inactive)	24.2 µM (inactive)	21.4 µM (inactive)	16.6 µM (inactive)	16.6 µM (inactive)	10.5 µM (inactive)
CCN1CC2(C)CC[C@@H](OC)C34[C@@H]2[C@H](OC(C)=O)C2(OCO[C@@]25C[C@H](OC)C2C[C@]3(O)[C@@H]5[C@H]2O)[C@H]14	34.2 µM (inactive)		> 100 µM (inactive)					> 100 µM (inactive)	> 100 µM (inactive)	> 100 µM (inactive)	> 100 µM (inactive)	> 100 µM (inactive)	> 100 µM (inactive)	> 100 µM (inactive)		> 100 µM (inactive)
O=C1c2ccccc2C(=O)N1CCN(CCN1C(=O)c2ccccc2C1=O)Cc1ccccc1	> 100 µM (inactive)	> 100 µM (inactive)	> 100 µM (inactive)	> 100 µM (inactive)	> 100 µM (inactive)		> 100 µM (inactive)	> 100 µM (inactive)	> 100 µM (inactive)		> 10 µM (inactive)	> 100 µM (inactive)	> 100 µM (inactive)	> 100 µM (inactive)	36.7 µM (inactive)	> 100 µM (inactive)
C[C@]12CCc3nonc3C1CC[C@@H]1C2CC[C@]2(C)C(=O)/C(=N\O)CC12 (some centres not stated)	> 100 µM (inactive)	> 100 µM (inactive)	> 100 µM (inactive)	> 100 µM (inactive)	> 100 µM (inactive)	> 100 µM (inactive)	> 100 µM (inactive)	77.4 µM (inactive)	> 100 µM (inactive)	> 100 µM (inactive)	28.1 µM (inactive)	> 100 µM (inactive)	> 100 µM (inactive)	> 100 µM (inactive)	> 100 µM (inactive)	> 100 µM (inactive)
COC(=O)c1[nH]c(=S)[nH]c(=O)c1-c1ccc(Cl)cc1	> 50 µM (inactive)	> 50 µM (inactive)	> 50 µM (inactive)	> 50 µM (inactive)	> 50 µM (inactive)	> 50 µM (inactive)	> 50 µM (inactive)	> 50 µM (inactive)	> 50 µM (inactive)	> 50 µM (inactive)	> 50 µM (inactive)	> 50 µM (inactive)	> 50 µM (inactive)	> 50 µM (inactive)	> 50 µM (inactive)	> 50 µM (inactive)
Cc1nnc2n1N=C(c1ccccc1)C(c1ccccc1)S2 (configuration not stated)	27 µM (inactive)	64 µM (inactive)	45.4 µM (inactive)	33.2 µM (inactive)	19.3 µM (inactive)	97.5 µM (inactive)	31.8 µM (inactive)	29.4 µM (inactive)	39.4 µM (inactive)	31 µM (inactive)	17.8 µM (inactive)	55.5 µM (inactive)	> 100 µM (inactive)	67.1 µM (inactive)	39.5 µM (inactive)	
Cc1ccccc1NC(=O)C(=O)CC(=O)c1c(C)[n+]([O-])c2ccccc2[n+]1[O-]	> 100 µM (inactive)	> 100 µM (inactive)	> 100 µM (inactive)	> 100 µM (inactive)		> 100 µM (inactive)	> 100 µM (inactive)	> 100 µM (inactive)	> 100 µM (inactive)	> 100 µM (inactive)	40 µM (inactive)	> 100 µM (inactive)		16 µM (inactive)	> 100 µM (inactive)	0.0278 µM (active)
CC(=O)Nc1ccc(/C=N\N2C(=O)c3ccccc3C2=O)cc1	> 100 µM (inactive)	> 100 µM (inactive)	> 100 µM (inactive)	> 100 µM (inactive)	> 100 µM (inactive)	> 100 µM (inactive)	> 100 µM (inactive)	> 100 µM (inactive)	> 100 µM (inactive)	> 100 µM (inactive)	> 100 µM (inactive)	> 100 µM (inactive)	> 100 µM (inactive)	> 100 µM (inactive)	> 100 µM (inactive)	> 100 µM (inactive)
